Values of other authors in article PMC4474874, “Effect of JAK Inhibitors on Release of CXCL9, CXCL10 and CXCL11 from Human Airway Epithelial Cells” (PLoS ONE, 2015).
Read-outs that look alike come from different tables or passages of the source.

Experiments:
[1] = system: human T lymphocytes (JAK1/3); set-up: method as in Coe et al., 25; conditions: ref Coe et al., 25; read-out: IC50 IL-2-induced P-STAT5 human T lymphocytes (JAK1/3); cited from earlier work
TYK2 = system: TYK2; set-up: method as in Coe et al., 25; conditions: ref Coe et al., 25, cited from earlier work
MAPKAP-K2 = system: MAPKAP-K2; set-up: method as in PMID 18094329; conditions: inactive or IC50 >30μM; read-out: IC50 against MAPKAP-K2; cited from earlier work
Lck = system: Lck; set-up: method as in PMID 18094329; conditions: at concentrations >5μM; cited from earlier work
JAK2 = system: JAK2; set-up: method as in PMID 18094329; conditions: cellular assay; cited from earlier work
MET = system: MET; set-up: method as in PMID 18094329; conditions: inactive or IC50 >30μM; read-out: IC50 against MET; cited from earlier work

Structure (SMILES) | IC50 [1] | IC50 (TYK2; 1mM ATP, read-out: IC50 TYK2 1 mM) | IC50 (TYK2; ATP at the Km, read-out: IC50 TYK2 Km) | IC50 (MAPKAP-K2) | effect against Lck (Lck) | IC50 (JAK2) | IC50 (MET)
CCc1cc(O)ccc1-c1ccc2c(-c3nc4ccccc4[nH]3)n[nH]c2c1 [PF1367550, 4-(3-(1H-benzo[d]imidazol-2-yl)-1H-indazol-6-yl)-3-ethylphenol] | 0.011 µM | 0.0084 µM | 0.0008 µM |  |  |  | 
C[C@@H]1CCN(C(=O)N2CCCC2)C[C@@H]1N(C)c1ncnc2[nH]ccc12 [PF956980] |  |  |  | > 30 µM | modest effects | 0.188 µM | > 30 µM
